# Measured values from patent US20160137639A1, “TRIAZOLE-ISOXAZOLE COMPOUND AND MEDICAL USE THEREOF” (JAPAN TOBACCO INC., priority 2012, published 2016).
# Key:
# human RORγ = target: T1, human RORγ (Homo sapiens, UniProt P51449); assay: Luciferase reporter gene assay of inhibitory effect against RORγ transcriptional activity (GAL4-hRORγ plasmid in CHO cells); format: cell-based; details: read-out: LUC EC50 (μM) hRORg
# T1 construct: human, NM_005060.3 and from Ser253 to Lys518; expressed in transfected cells; host or cells: CHO cells (transient co-transfection with pG5-Luc reporter)
# T1 sequence (P51449 253-518): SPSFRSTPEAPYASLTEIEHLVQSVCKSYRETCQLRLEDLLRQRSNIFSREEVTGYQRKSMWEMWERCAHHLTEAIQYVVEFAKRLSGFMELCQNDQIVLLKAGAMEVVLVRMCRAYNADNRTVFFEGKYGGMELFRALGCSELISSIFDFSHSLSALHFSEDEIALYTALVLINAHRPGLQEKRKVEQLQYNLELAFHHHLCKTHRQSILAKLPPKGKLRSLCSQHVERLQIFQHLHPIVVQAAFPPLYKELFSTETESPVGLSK
# Procedure: (§1) In vitro assay of inhibitory effect against RORγ transcriptional activity
# (§2) Inhibitory effect of test article on transcriptional activity of RORγ was measured by means of the following luciferase reporter gene assay.
# (§3) A cDNA encoding human and mouse RORγ ligand binding domain (LBD) were obtained based on the reported sequences (Genebank accession number and sequence: human, NM_005060.3 and from Ser253 to Lys518; mouse, NM_011281.2 and from Ile251 to Lys516).
# (§4) The cDNA of human RORγ or mouse RORγ was inserted into pFA-CMV vector (Strategene), which expresses GAL4-DNA binding domain fusion protein.
# (§5) The resulting plasmids are hereinafter referred to as GAL4-hRORγ plasmid and GAL4-mRORγ plasmid, respectively.
# (§6) Human or mouse GAL4-RORγ plasmid was transiently co-transfected into Chinese hamster ovary cells (CHO cells) with […] plasmid, a reporter plasmid expressing firefly luciferase depending on GAL4.
# (§7) TransIT CHO transfection reagent (Mirus) was used to co-transfect human or mouse GAL4-RORγ plasmid into CHO cells with pG5-Luc plasmid.
# (§8) One day before the assay, CHO cells were suspended in HAM F-12 Nutrient medium containing 10 v/v % fetal bovine serum and seeded at 6×10^6 cells per 175 cm^2 cell culture flask.
# (§9) Fifty four micro litters of Transit-CHO reagent was added into a 15 ml tube containing 1.16 ml of HAM F-12 Nutrient medium without fetal bovine serum and incubated at room temperature for 10 min.
# A total 36 uL plasmid solution containing the GAL4-hRORγ plasmid (400 ng), pG5-Luc plasmid (9000 ng) and pcDNA3 plasmid (8600 ng) were added into the tube and mixed gently.
# (§10) The mixture was incubated at room temperature for 10 min.
# (§11) Nine micro litters of CHO Mojo Reagent was then added into each tube and mixed gently. The mixture was incubated at room temperature for 10 min.
# (§12) The resultant transfection reagent was applied to the cell culture.
# (§13) After incubation at 37° C., 5% CO2 for 4 hr, the transfected CHO cells were harvested by a trypsin treatment.
# (§14) The collected cells were resuspended in HAM F-12 Nutrient medium supplemented with 10 v/v % fetal bovine serum and plated into a 384-well-white plate at 8,000 cells/50 uL/well.
# (§15) The plate was incubated at room temperature for 1 hour and then further incubated at 37° C., 5% CO2 for 3 hours.
# (§16) The test articles were dissolved in dimethylsulfoxide (DMSO) to obtain a concentration of 10 mmol/L. The resulting solution was diluted with the medium just before use and added to the cells in the plate to prepare 8 different concentrations of the test article.
# (§17) The final concentration of DMSO was 0.1 v/v % After the addition of the test articles, the cells were incubated at 37° C., 5% CO2 for 2 days.
# (§18) RORγ transcriptional activity was detected as the intracellular luciferase activity using SteadyLite HTS Reporter Gene Assay System (Perkin Elmer).
# (§19) StedyLite Reagent was diluted five-fold into a solution containing 10 mM Tricine, 0.2% w/v BSA, 0.02% v/v Tween-20 to obtain the luciferase substrate solution.
# (§20) After the measurement of the cell viability using Resazurin, the culture media in the 384 well-plate were removed. Then the Luc substrate solution was added into each well.
# (§21) After the incubation at room temperature for 10 minutes, luminescence of each well was measured by a microplate reader.
# (§22) The luciferase activity derived from the luminescence count in the vehicle-control well treated with 0.1% DMSO alone was defined as 100%, and the luciferase activity in the test article was calculated as a percentage (%-of-control) based on the value of the vehicle-control.
# (§23) EC50 value of test article was calculated by curve fitting with GraphPad Prism.
# (§24) The luminescence counts at the concentration of the test article where the cytotoxicity was observed were excluded from the data analysis.
# mouse RORγ = target: T2, mouse RORγ (Mus musculus, UniProt P51450); assay: Luciferase reporter gene assay of inhibitory effect against RORγ transcriptional activity (GAL4-mRORγ plasmid in CHO cells); format: cell-based; details: read-out: LUC EC50 (μM) mRORg
# T2 construct: mouse, NM_011281.2 and from Ile251 to Lys516; expressed in transfected cells; host or cells: CHO cells (transient co-transfection with pG5-Luc reporter)
# T2 sequence (P51450 251-516): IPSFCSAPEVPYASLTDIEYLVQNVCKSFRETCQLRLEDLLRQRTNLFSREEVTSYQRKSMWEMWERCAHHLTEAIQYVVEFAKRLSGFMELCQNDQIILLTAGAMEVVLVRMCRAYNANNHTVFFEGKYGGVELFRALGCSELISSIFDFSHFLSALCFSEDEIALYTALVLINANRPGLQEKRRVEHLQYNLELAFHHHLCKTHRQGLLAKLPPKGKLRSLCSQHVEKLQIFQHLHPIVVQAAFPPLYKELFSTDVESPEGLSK
# Procedure: as §1, §2, §3, §4, §5, §6, §7, §8, §9, §10, §11, §12, §13, §14, §15, §16, §17, §18, §19, §20, §21, §22, §23, §24
SMILES,EC50 (human RORγ) [µM],EC50 (mouse RORγ) [µM]
Cc1ccc(NC(=O)CC(CCN2C(=O)c3ccccc3C2=O)c2nnc(CCCC(C)C)n2C2CC2)c(C)c1 (racemic) [Example F-272],< 3,< 3
Cc1ccc(NC(=O)CC(CCN)c2nnc(CCCC(C)C)n2C2CC2)c(C)c1 (racemic) [Example F-273],> 3,> 3
Cc1ccc(NC(=O)CC(CN)c2nnc(CCCC(C)C)n2C2CC2)c(C)c1 (racemic) [Example F-274],> 3,> 3
CC(=O)NCCC(CC(=O)Nc1ccc(C)cc1C)c1nnc(CCCC(C)C)n1C1CC1 (racemic) [Example F-275],> 3,> 3
Cc1ccc(NC(=O)CC(CCN(C)C)c2nnc(CCCC(C)C)n2C2CC2)c(C)c1 (racemic) [Example F-276],> 3,> 3
CC(=O)NCC(CC(=O)Nc1ccc(C)cc1C)c1nnc(CCCC(C)C)n1C1CC1 (racemic) [Example F-277],> 3,< 3
Cc1ccc(NC(=O)CC(CN(C)C)c2nnc(CCCC(C)C)n2C2CC2)c(C)c1 (racemic) [Example F-278],> 3,< 3
COc1cc(C)ccc1CNC(=O)[C@H]1CN(C(C)=O)C[C@@H]1c1nnc(CCCC(C)C)n1C1CC1 (racemic) [Example F-279],< 3,< 3
Cc1ccc(NC(=O)CC(CCCN2C(=O)c3ccccc3C2=O)c2nnc(CCCC(C)C)n2C2CC2)c(C)c1 (racemic) [Example F-281],< 3,< 3
Cc1ccc(NC(=O)CC(CCCN)c2nnc(CCCC(C)C)n2C2CC2)c(C)c1 (racemic) [Example F-282],> 3,> 3
Cc1ccc(NC(=O)CC(CCC(=O)O)c2nnc(CCCC(C)C)n2C2CC2)c(C)c1 (racemic) [Example F-283],> 3,> 3
Cc1ccc(NC(=O)CC(CCC(N)=O)c2nnc(CCCC(C)C)n2C2CC2)c(C)c1 (racemic) [Example F-284],> 3,> 3
CNC(=O)CCC(CC(=O)Nc1ccc(C)cc1C)c1nnc(CCCC(C)C)n1C1CC1 (racemic) [Example F-285],> 3,< 3
Cc1ccc(NC(=O)CC(CCC(=O)N(C)C)c2nnc(CCCC(C)C)n2C2CC2)c(C)c1 (racemic) [Example F-286],< 3,< 3
CC(=O)NCCCC(CC(=O)Nc1ccc(C)cc1C)c1nnc(CCCC(C)C)n1C1CC1 (racemic) [Example F-287],> 3,> 3
Cc1ccc(NC(=O)CC(CCCN(C)C)c2nnc(CCCC(C)C)n2C2CC2)c(C)c1 (racemic) [Example F-288],> 3,> 3
COC(C)(C)CCCc1nnc([C@H]2CN(C(C)=O)C[C@@H]2C(=O)Nc2ccc(C)cc2C)n1C1CC1 (racemic) [Example F-290],> 3,> 3
CCC(C)(C)CCc1nnc([C@H]2CN(C(C)=O)C[C@@H]2C(=O)Nc2ccc(C)cc2C)n1C1CC1 (racemic) [Example F-299],< 3,< 3

SMILES,EC50 (human RORγ) [µM],EC50 (mouse RORγ) [µM]
CC(=O)N1C[C@H](C(=O)Nc2ccc(C)cc2C)[C@@H](c2nnc([C@H]3CC[C@H](C(C)C)CC3)n2C2CC2)C1 (racemic) [Example F-300],< 3,< 3
C=CCC(CC(=O)Nc1ccc(C)cc1C)c1nnc(CCCC(C)(C)C)n1C1CC1 (racemic) [Example F-306],< 3,< 3
Cc1ccc(NC(=O)CC(CCO)c2nnc(CCCC(C)(C)C)n2C2CC2)c(C)c1 (racemic) [Example F-307],< 3,< 3
CC(=O)N1C[C@H](C(=O)Nc2ccc(C)cc2C)[C@@H](c2nnc(-c3ccc(C(C)C)cc3)n2C2CC2)C1 (racemic) [Example F-319],< 3,< 3
CC(=O)N1C[C@H](C(=O)Nc2ccc(C)cc2C)[C@@H](c2nnc(CCC(C)(C)C(C)C)n2C2CC2)C1 (racemic) [Example F-321],< 3,< 3
CC(=O)N1C[C@H](C(=O)Nc2cccc(C)c2C)[C@@H](c2nnc(CCCC(C)(C)C)n2C2CC2)C1 (racemic) [Example F-324],< 3,< 3
CC(=O)N1C[C@H](C(=O)Nc2ccc(C)cc2C)[C@@H](c2nnc(CCOC(C)(C)C(F)(F)F)n2C2CC2)C1 (racemic) [Example F-325],< 3,< 3
CC(=O)N1C[C@H](C(=O)Nc2ccc(C)cc2C)[C@@H](c2nnc([C@H]3C[C@H](OC(C)C)C3)n2C2CC2)C1 (racemic) [Example F-329],> 3,> 3
CC(=O)N1C[C@H](C(=O)Nc2ccc(C)cc2C)[C@@H](c2nnc([C@H]3C[C@@H](OC(C)C)C3)n2C2CC2)C1 (racemic) [Example F-330],> 3,> 3
CC(=O)N1C[C@H](C(=O)Nc2cc(C)ccc2C)[C@@H](c2nnc(CCCC(C)(C)C)n2C2CC2)C1 (racemic) [Example F-331],< 3,< 3
COc1cccc(NC(=O)[C@H]2CN(C(C)=O)C[C@@H]2c2nnc(CCCC(C)(C)C)n2C2CC2)c1C (racemic) [Example F-332],< 3,< 3
CC(=O)N1C[C@H](C(=O)Nc2ccc(F)cc2C)[C@@H](c2nnc(CCCC(C)(C)C)n2C2CC2)C1 (racemic) [Example F-333],< 3,< 3
CC(=O)N1C[C@H](C(=O)Nc2ccc(C)cc2C)[C@@H](c2nnc(C3CC3CC(C)C)n2C2CC2)C1 (mixture of isomers) [Example F-340],> 3,< 3
CC(=O)N1C[C@H](C(=O)Nc2ccc(C)cc2C)[C@@H](c2nnc(C3CC3CC(C)C)n2C2CC2)C1 (mixture of isomers) [Example F-341],< 3,< 3
CC(=O)N1C[C@H](C(=O)Nc2ccc(C)cc2C)[C@@H](c2nnc([C@H]3C[C@H](c4ccccc4)C3)n2C2CC2)C1 (racemic) [Example F-345],< 3,< 3
CC(=O)N1C[C@H](C(=O)Nc2ccc(C)cc2C)[C@@H](c2nnc([C@H]3C[C@@H](c4ccccc4)C3)n2C2CC2)C1 (racemic) [Example F-346],< 3,< 3
CC(=O)N1C[C@H](C(=O)Nc2ccc(C)cc2C)[C@@H](c2nnc(CC3CC(C)(C)C3)n2C2CC2)C1 (racemic) [Example F-347],< 3,< 3
CC(=O)N1C[C@H](C(=O)Nc2ccc(C)cc2C)[C@@H](c2nnc(-c3cc(C(C)C)on3)n2C2CC2)C1 (racemic) [Example F-350],< 3,< 3
